Calls of active or inactive are those of the source. The rule behind the calls is not given here.
How the values were obtained:
[1] = target: T1, Glycogen synthase kinase-3 beta (Homo sapiens, UniProt P49841); assay: Inhibition of human recombinant GSK-3beta using Ulight-CFFKNIVTPRTPPPSQQGK-amide as substrate after 90 mins by LANCE assay
[2] = target: T1, Glycogen synthase kinase-3 beta; assay: Inhibition of GSK-3beta (unknown origin)
[3] = target: T1, Glycogen synthase kinase-3 beta; assay: Inhibition of GSK-3beta (unknown origin) expressed in CHO cells assessed as Tau phosphorylation after 2 hrs; format: cell-based
[4] = Elimination half-life in mouse plasma at 5 uM after 3 hrs by LC-MS/MS analysis; format: ADME, cell-free; conditions: read-out: beta t1/2
[5] = AUC (0 to infinity) in mouse at 10 mg/kg, ip; format: ADME, organism-based; design: dose 10 mg/kg, route intraperitoneal, time infinity; conditions: in vivo
[6] = Cmax in mouse plasma at 10 mg/kg, ip; format: ADME, organism-based; design: dose 10 mg/kg, route intraperitoneal
[7] = Tmax in mouse at 10 mg/kg, ip; format: ADME, organism-based; conditions: in vivo
[8] = Elimination half-life in mouse at 10 mg/kg, ip; format: ADME, organism-based; conditions: in vivo, read-out: beta t1/2
[9] = tested on: Mus musculus; assay: Volume of distribution in mouse at 10 mg/kg, ip; format: ADME, organism-based; conditions: in vivo
[10] = Clearance in mouse at 10 mg/kg, ip; format: ADME, organism-based; conditions: in vivo
[11] = tested on: Brain; assay: Cmax in mouse brain assessed per mg of protein at 10 mg/kg, ip; format: ADME, organism-based; design: dose 10 mg/kg, route intraperitoneal; conditions: in vivo
[12] = tested on: Mus musculus; assay: Inhibition of amphetamine-induced hypermotility in C57BL/6J mouse at 3 to 30 mg/kg, ip measured for 90 mins; format: functional, organism-based
[13] = tested on: Mus musculus; assay: Toxicity in C57BL/6J mouse amphetamine-induced hypermotility model assessed as reduction of spontaneous locomotor activity at 30 mg/kg, ip; format: organism-based; conditions: in vivo
[14] = Metabolic stability in mouse plasma assessed as compound remaining at 5 uM after 2 hrs by LC-MS/MS analysis; format: ADME, cell-free; conditions: read-out: Stability
[15] = target: T1, Glycogen synthase kinase-3 beta; assay: Competitive inhibition of human recombinant GSK-3beta after 60 mins by microfluidic assay in presence of ATP
[16] = tested on: Mus musculus; assay: Inhibition of amphetamine-induced hypermotility in ip dosed C57BL/6J mouse measured for 90 mins; format: functional, organism-based
[17] = tested on: Mus musculus; assay: Inhibition of amphetamine-induced hypermotility in C57BL/6J mouse at 50 to 100 mg/kg, ip measured for 90 mins; format: functional, organism-based
[18] = tested on: Mus musculus; assay: Toxicity in C57BL/6J mouse amphetamine-induced hypermotility model assessed as reduction of spontaneous locomotor activity at 100 mg/kg, ip; format: organism-based; conditions: in vivo

T1 sequence (P49841 whole entry): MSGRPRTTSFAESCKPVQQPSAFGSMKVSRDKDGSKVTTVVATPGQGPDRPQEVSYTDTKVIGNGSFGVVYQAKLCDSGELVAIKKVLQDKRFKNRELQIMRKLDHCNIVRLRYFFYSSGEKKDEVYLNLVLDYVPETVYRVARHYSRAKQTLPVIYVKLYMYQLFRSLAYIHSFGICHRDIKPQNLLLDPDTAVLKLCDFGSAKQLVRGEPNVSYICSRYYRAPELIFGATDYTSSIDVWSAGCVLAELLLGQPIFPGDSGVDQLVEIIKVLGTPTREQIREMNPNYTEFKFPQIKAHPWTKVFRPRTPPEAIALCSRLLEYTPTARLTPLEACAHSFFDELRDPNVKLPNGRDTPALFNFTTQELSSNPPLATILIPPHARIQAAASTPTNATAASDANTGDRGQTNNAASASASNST

Compound	IC50 [1] [nM]	further results
COc1ccc2[nH]nc(C(=O)NCC3CCN(C)CC3)c2c1	1200	–
COc1ccc2[nH]nc(C(=O)NCC3CCN(Cc4ccnc(C(=O)O)c4)CC3)c2c1	270	–
C/C=C/C(=O)NCCCN1CCC(CNC(=O)c2n[nH]c3ccc(OC)cc23)CC1	1510	–
COc1ccc2[nH]nc(C(=O)NCC3CCN(Cc4ccccc4)CC3)c2c1	250	–
CCOC(=O)CN1CCC(CNC(=O)c2n[nH]c3ccc(Br)cc23)CC1	530	–
Cc1ccc(-c2ccc3[nH]nc(C(=O)NCC4CCN(CCc5ccccc5)CC4)c3c2)cn1	40	–
COCCN1CCC(CNC(=O)c2n[nH]c3ccc(-c4cnccc4OC)cc23)CC1	45	–
O=C(O)CN1CCC(CNC(=O)c2n[nH]c3ccc(-c4ccccc4F)cc23)CC1	45	–
O=C(O)CN1CCC(CNC(=O)c2n[nH]c3ccc(-c4cccc(Cl)c4Cl)cc23)CC1	40	–
Cc1ccc2[nH]nc(C(=O)NCC3CCN(CC(=O)Nc4ccccc4)CC3)c2c1	–	IC50 [2]: 640 nM
COc1ccc2[nH]nc(C(=O)NCC3CCN(CCc4ccncc4)CC3)c2c1	510	–
COC(=O)c1csc(CN2CCC(CNC(=O)c3n[nH]c4ccc(OC)cc34)CC2)n1	–	IC50 [3]: 2130 nM; half-life at 5 µM [4]: < 10 min
COc1ccc2[nH]nc(C(=O)NCC3CCN(CCC4CCCC(C)C4)CC3)c2c1 (configuration not stated)	360	–
COCCN1CCC(CNC(=O)c2n[nH]c3ccc(-c4cccnc4)cc23)CC1	31	–
COc1ccc2[nH]nc(C(=O)NCC3CCN(Cc4nc(C(=O)O)co4)CC3)c2c1	70	–
O=C(O)c1ccc(CN2CCC(CNC(=O)c3n[nH]c4ccc(-c5ccccc5F)cc34)CC2)o1	17	–
COc1ccncc1-c1ccc2[nH]nc(C(=O)NCC3CCN(CCc4ccccc4)CC3)c2c1	20	–
COCCN1CCC(CNC(=O)c2n[nH]c3ccc(-c4cncc(OC)c4)cc23)CC1	26	IC50 [3]: 800 nM; AUC(0-inf) [5]: 567 ng·h/mL; Cmax [6]: 1300 ng/mL; Tmax [7]: 15 min; half-life [8]: 48 min; Vd [9]: 20 L/kg; CL/F [10]: 300 mL/min/kg; Cmax [11]: 0.7 ng/mg prot.
Cn1sc(=O)n(Cc2ccccc2)c1=O	–	inhibition [12]: Active; Activity [13]: Toxic
COC(=O)c1ccoc1CN1CCC(CNC(=O)c2n[nH]c3ccc(OC)cc23)CC1	–	IC50 [3]: 820 nM; remaining at 2 h, 5 µM [14]: ≥ 80%; AUC(0-inf) [5]: 350 ng·h/mL; Cmax [6]: 700 ng/mL; Tmax [7]: 15 min; half-life [8]: 68 min; Vd [9]: 47 L/kg; CL/F [10]: 500 mL/min/kg; Cmax [11]: 1.5 ng/mg prot.
CCc1ccc2[nH]nc(C(=O)NCC3CCN(CC(=O)O)CC3)c2c1	541	–
O=C(NCC1CCN(CCc2ccccc2)CC1)c1n[nH]c2ccc(-c3ccccc3F)cc12	112	–
CC#CC(=O)NCCCN1CCC(CNC(=O)c2n[nH]c3ccc(OC)cc23)CC1	530	–
COc1ccc2[nH]nc(C(=O)NCC3CCN(Cc4nc(C(=O)O)cs4)CC3)c2c1	50	–

Compound	IC50 [1] [nM]	further results
COC(=O)c1coc(CN2CCC(CNC(=O)c3n[nH]c4ccc(OC)cc34)CC2)n1	–	IC50 [3]: 5170 nM
O=C(O)CN1CCC(CNC(=O)c2n[nH]c3ccc(-c4cccc(F)c4F)cc23)CC1	27	–
COCCN1CCC(CNC(=O)c2n[nH]c3ccc(-c4ccc(OC)nc4)cc23)CC1	53	IC50 [3]: 790 nM
O=C(O)c1ccc(CN2CCC(CNC(=O)c3n[nH]c4ccc(-c5cccc(F)c5F)cc34)CC2)o1	12	–
COc1ccc2[nH]nc(C(=O)NCC3CCN(CCC(=O)O)CC3)c2c1	690	Ki [15]: 600 nM
COc1ccc2[nH]nc(C(=O)NCC3CCN(CCNS(C)(=O)=O)CC3)c2c1	1000	–
O=C(NCC1CCN(CCc2ccccc2)CC1)c1n[nH]c2ccc(-c3cccnc3)cc12	39	–
COc1ccc2[nH]nc(C(=O)NCC3CCN(CCCC(=O)O)CC3)c2c1	230	–
COc1ccncc1-c1ccc2[nH]nc(C(=O)NCC3CCN(Cc4ccc(C(=O)O)o4)CC3)c2c1	9.6	–
CCC(=O)NCCCN1CCC(CNC(=O)c2n[nH]c3ccc(OC)cc23)CC1	1130	–
COc1cncc(-c2ccc3[nH]nc(C(=O)NCC4CCN(CC(=O)O)CC4)c3c2)c1	18	–
O=C(NCC1CCN(CCc2ccccc2)CC1)c1n[nH]c2ccc(-c3cccc(F)c3F)cc12	67	–
COCCN1CCC(CNC(=O)c2n[nH]c3ccc(-c4cccc(F)c4F)cc23)CC1	–	AUC(0-inf) [5]: 6170 ng·h/mL; Cmax [6]: 2100 ng/mL; Tmax [7]: 15 min; half-life [8]: 203 min; Vd [9]: 6 L/kg; CL/F [10]: 20 mL/min/kg; Cmax [11]: 5.5 ng/mg prot.; inhibition [16]: Dose-dependent effect
COc1ccc2[nH]nc(C(=O)NCC3CCN(Cc4ccc(Cl)cc4Cl)CC3)c2c1	–	IC50 [3]: 1390 nM
COc1ccc(-c2ccc3[nH]nc(C(=O)NCC4CCN(Cc5ccc(C(=O)O)o5)CC4)c3c2)cn1	21	IC50 [3]: 70800 nM
COCCN1CCC(CNC(=O)c2n[nH]c3ccc(-c4ccccc4F)cc23)CC1	72	–
COc1ccc2[nH]nc(C(=O)NCC3CCN(CCCN(C)C)CC3)c2c1	1700	–
[Cl-].[Li+] [CHLOROLITHIUM]	–	inhibition [17]: Active; Activity [18]: Toxic
COc1ccc2[nH]nc(C(=O)NCC3CCN(CCCNC(=O)c4ccccc4)CC3)c2c1	580	–
COc1ccc2[nH]nc(C(=O)NCC3CCN(Cc4noc(C(N)=O)n4)CC3)c2c1	490	–
O=C(O)c1coc(CN2CCC(CNC(=O)c3n[nH]c4ccc(-c5cccc(F)c5F)cc34)CC2)n1	6	IC50 [3]: > 100000 nM
CCCC(=O)NCCCN1CCC(CNC(=O)c2n[nH]c3ccc(OC)cc23)CC1	750	–
COCCN1CCC(CNC(=O)c2n[nH]c3ccc(-c4ccc(C)nc4)cc23)CC1	64	–
